Reference: patent publication US12551484B2, “Methods of treatment and/or prevention of major adverse cardiovascular events (MACE) with a combination of a BET bromodomain inhibitor and a sodium dependent glucose transport 2 inhibitor” (Resverlogix Corp., priority 2019, dated 2026)
Like-named read-outs stand apart in the source and are kept apart here.

What was measured:
type 2 diabetes patients [1] = details: cited from earlier work
[2] = system: type 2 diabetes patients with low HDL cholesterol and a recent acute coronary syndrome (ACS); assay: BETonMACE Phase 3 trial (NCT02586155), post-hoc analysis by SGLT2 inhibitor use
Experimental: All patients received high intensity statin treatment as well as other evidence-based treatments.
Patients (n=2425) with ACS in the preceding 7 to 90 days, with type 2 diabetes and low HDL cholesterol (≤40 mg/dl for men, 45 mg/dl for women), receiving intensive or maximum-tolerated therapy with atorvastatin or rosuvastatin, were assigned in double-blind fashion to receive apabetalone 100 mg orally twice daily or matching placebo. […] The primary efficacy measure is time to first occurrence of cardiovascular death, non-fatal myocardial infarction, or stroke.
Those patients who received at least one dose of SGLT2 treatment after the date of the first incidence of event were censored as non-MACE events and the date of last contact was used as the censoring date.
The distributions of the endpoints within the apabetalone and placebo groups were compared using a two-sided log-rank test (LRT) with an alpha=0.05 level of significance. The cumulative incidence is shown as 1-KM (Kaplan-Meier) estimate for event rate.

type 2 diabetes patients [3] = details: human, in vivo; cited from earlier work
[4] = cardiovascular death, non-fatal myocardial infarction, or stroke, FIGS. 1-2
[5] = patients not treated with SGLT2 inhibitor, vs placebo (FIG. 2)
[6] = patients not treated with SGLT2 inhibitor, vs placebo (FIG. 5)
[7] = patients not treated with SGLT2 inhibitor, vs placebo (FIG. 8)
[8] = patients not treated with SGLT2 inhibitor, vs placebo (FIG. 11)
[9] = patients not treated with SGLT2 inhibitor, vs placebo (FIG. 14)
[10] = patients not treated with SGLT2 inhibitor, vs placebo (FIG. 17)

Structure (SMILES): OC[C@H]1O[C@@H](c2ccc(Cl)c(Cc3ccc(O[C@H]4CCOC4)cc3)c2)[C@H](O)[C@@H](O)[C@@H]1O [empaglifozin, empagliflozin]
- HR, broadly defined MACE (type 2 diabetes patients [1]; human, in vivo): 0.89
- HR, cardiovascular deaths (type 2 diabetes patients [1]; human, in vivo): 0.62
- Hazard Ratio [HR], narrowly defined MACE (type 2 diabetes patients [1]; human, in vivo): 0.86
- reduction of broadly defined MACE (type 2 diabetes patients [1]; human, in vivo): 11%
- reduction of narrowly defined MACE (type 2 diabetes patients [1]; human, in vivo): 14%
- HR, individual MACE events (type 2 diabetes patients [1]; with the exception of cardiovascular deaths, did not show any reduction): 1.0

Structure (SMILES): COc1cc(OC)c2c(=O)[nH]c(-c3cc(C)c(OCCO)c(C)c3)nc2c1 [apabetalone, 2-(4-(2-hydroxyethoxy)-3,5-dimethylphenyl)-5,7-dimethoxyquinazolin-4(3H)-one]
- Kaplan-Meier estimated event rate, narrowly defined MACE ([2]; at 18 months, FIGS. 1-2): 8.0%
- primary end points (narrowly defined MACE), number in group [2, 4]: 111
- primary end points (narrowly defined MACE), percent of group [2, 4]: 10.5%
- Hazard Ratio [HR], narrowly defined MACE [2, 5]: 0.84
- reduction of number of patients having a narrowly defined MACE event at any given time [2, 5]: 16%
- Hazard Ratio [HR], broadly defined MACE [2, 6]: 0.87
- reduction of number of patients having a broadly defined MACE event at any given time [2, 6]: 13%
- Hazard Ratio [HR], non-fatal myocardial infarction [2, 7]: 0.85
- reduction of number of patients having a non-fatal myocardial infarction event at any given time [2, 7]: 15%
- Hazard Ratio [HR], cardiovascular death [2, 8]: 0.84
- reduction of number of patients having a cardiovascular death event at any given time [2, 8]: 16%
- Hazard Ratio [HR], hospitalization for cardiovascular diseases [2, 9]: 0.87
- reduction of number of patients having a hospitalization for cardiovascular diseases event at any given time [2, 9]: 13%
- Hazard Ratio [HR], hospitalization for congestive heart failure [2, 10]: 0.61
- reduction of number of patients having a hospitalization for congestive heart failure event at any given time [2, 10]: 39%

Structure (SMILES): Cc1ccc([C@@H]2O[C@H](CO)[C@@H](O)[C@H](O)[C@H]2O)cc1Cc1ccc(-c2ccc(F)cc2)s1 [Canaglifozin, canagliflozin]
- HR, narrowly defined MACE (type 2 diabetes patients [3]): 0.86
- reduction of narrowly defined MACE (type 2 diabetes patients [3]): 14%
- reductions in the individual MACE events (type 2 diabetes patients [3]): did not reach statistical significance
